Literature values in patent US20130096948A1, “METHODS FOR DIAGNOSIS, PROGNOSIS AND TREATMENT” (Nodality, Inc., priority 2009, published 2013).
Where two headings read alike, the source gives them in different places.

peak plasma concentration (high dose Cytarabine, 3 g/m2)	peak plasma concentration (standard dose of Cytarabine, 100 mg/m2)	peak plasma concentration (Daunorubicin at 25 mg/m2)	peak plasma concentration (Daunorubicin at 50 mg/m2)	Compound
2 µM	approximately 40 nM	–	–	Nc1ccn([C@@H]2O[C@H](CO)[C@@H](O)[C@@H]2O)c(=O)n1 [Cytarabine]
–	–	50 ng/mL	200 ng/mL	COc1cccc2c1C(=O)c1c(O)c3c(c(O)c1C2=O)C[C@@](O)(C(C)=O)C[C@@H]3O[C@H]1C[C@H](N)[C@H](O)[C@H](C)O1 [Daunorubicin]
